These are literature values, as cited in patent US20230399335A1, “PROCESS FOR THE PREPARATION OF ASENAPINE IN THE FORM OF ITS FREE BASE” (LTS LOHMANN Therapie-Systeme AG, priority 2020, published 2023).

Each structure is given as a SMILES string.

For the data set the following is noted: when taken orally.

`CN1C[C@H]2c3ccccc3Oc3ccc(Cl)cc3[C@@H]2C1` (relative stereo) [asenapine, (3aRS,12bRS)-rel-5-chloro-2,3,3a,12b-tetrahydro-2-methyl-1H-dibenz[2,3:6,7]oxepin [4,5-c]pyrrole]: the bioavailability is less than 2%.
